Laboratory results taken from patent US20120157494A1, “ISOINDOLYL COMPOUNDS” (priority 2010, published 2012).

How the values were obtained:
hP2X7 = biological target: T1, hP2X7 (Homo sapiens, UniProt Q99572); experiment: Intracellular Calcium Flux (FLIPR) Assay; type: cell-based; conditions: 1321N1 cells stably expressing human P2X7; agonist 100 μM BzATP; 20 min equilibration with antagonist; read-out: FLIPR pIC50 hP2X7-1321n1 (converted)
T1 construct: 1321N1 cells stably expressing the full length human P2X7 gene (1321N1-hP2X7); expressed in transfected cells
T1 sequence (Q99572 1-595): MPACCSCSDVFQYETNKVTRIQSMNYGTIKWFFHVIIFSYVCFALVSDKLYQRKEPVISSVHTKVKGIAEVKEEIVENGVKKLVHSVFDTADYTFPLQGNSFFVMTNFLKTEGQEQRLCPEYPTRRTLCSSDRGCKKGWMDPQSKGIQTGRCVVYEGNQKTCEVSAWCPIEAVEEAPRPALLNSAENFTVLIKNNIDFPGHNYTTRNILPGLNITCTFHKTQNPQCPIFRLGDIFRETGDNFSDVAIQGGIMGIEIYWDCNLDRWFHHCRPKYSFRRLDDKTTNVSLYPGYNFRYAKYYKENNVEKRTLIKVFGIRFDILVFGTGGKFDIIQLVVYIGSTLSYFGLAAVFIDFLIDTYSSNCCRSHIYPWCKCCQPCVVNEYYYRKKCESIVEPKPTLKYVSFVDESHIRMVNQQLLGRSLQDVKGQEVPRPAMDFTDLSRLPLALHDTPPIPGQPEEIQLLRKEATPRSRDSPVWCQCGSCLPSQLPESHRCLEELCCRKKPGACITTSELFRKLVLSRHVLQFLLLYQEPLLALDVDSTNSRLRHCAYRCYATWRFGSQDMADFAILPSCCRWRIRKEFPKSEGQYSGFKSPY
Method: Stock solutions of compounds were prepared from powders as a 10 mM DMSO stock solution. These solutions were stored at RT during the two week period of these experiments to prevent freeze-thaw of the DMSO stocks. The DMSO stocks were added to the appropriate assay buffer at a concentration of 10 μM, and then diluted serially to the final concentrations that were tested. No observable precipitate was formed at any time during this process. The aqueous solutions of compounds as well as ATP (Sigma A7699) and BzATP (Sigma B6396) were prepared fresh for each day of experiment.
1321N1 cells stably expressing the full length human P2X7 gene (1321N1-hP2X7) and HEK293 cells stably expressing the full length rat P2X7 gene (HEK293-rP2X7) were obtained from the Roche Cell Culture Facility. 1321N1-hP2X7 cells were grown in Dulbecco's Modified Eagle's Medium (DMEM) high glucose supplemented with 10% FBS and 250 μg/mL G418. HEK293-rP2X7 cells were grown in DMEM/F-12 supplemented with 10% FBS, 1 mM CaCl2, 2 mM MgCl2, 2 mM L-Glutamine and 500 μg/ml G418. Cells were split such that they never became >70% confluent.
On the day prior to the experiment, 1321N1-hP2X7 or HEK293-rP2X7 cells were released into suspension with calcium-free PBS+Versene and washed by centrifugation with calcium-free PBS to remove the Versene. Cells were resuspended in growth medium at a density of 2.5×10^5 cells/mL and seeded into black walled, clear bottom 96 well plates (50,000 cells/well) approximately 18 hr prior to intracellular calcium flux experiments.
On the day of the experiment, plates were washed with FLIPR buffer (calcium- and magnesium-free Hank's Balanced Salt Solution (HBSS) supplemented with 10 mM Hepes, 2.5 mM probenecid and 2 mM calcium chloride) using a BIO-TEK 96 channel plate washer and incubated with […] fluo-3 dye at 37° C. for one hr. The dye was then removed by plate washing and the cells were allowed to equilibrate for 20 min at room temperature with antagonist or vehicle (FLIPR buffer). Agonist (100 μM BzATP final concentration for hP2X7; 5 μM BzATP final concentration or rP2X7) was added online with the FLIPR and fluorescence measurements made at 1 sec intervals for 60 sec followed by 3 sec intervals for a further 4 min (5 min total). A final addition of 5 μM ionomycin was made and the maximal BzATP-evoked fluorescence normalized to the maximal ionomycin-evoked fluorescence.

Row | Structure (SMILES) | IC50 (hP2X7) [nM] | melting point [°C]
1 | COc1ccccc1NC(=O)[C@@H]1CCCN(c2cccc3c2C(=O)N(Cc2ccncc2)C3=O)C1 [Compound I-4, (R)-1-(1,3-Dioxo-2-pyridin-4-ylmethyl-2,3-dihydro-1H-isoindol-4-yl)-piperidine-3-carboxylic acid (2-methoxy-phenyl)-amide] | 724 | 
2 | O=C(NCC1COCCO1)[C@@H]1CCCN(c2cccc3c2C(=O)N(Cc2ccncc2)C3=O)C1 (stereo partly drawn) [Compound I-14, (R)-1-(1,3-Dioxo-2-pyridin-4-ylmethyl-2,3-dihydro-1H-isoindol-4-yl)-piperidine-3-carboxylic acid ([1,4]dioxan-2-ylmethyl)-amide] | 912 | 186 to 187
3 | O=C(NCc1ccccc1F)[C@@H]1CCCN(c2cccc3c2C(=O)N(Cc2ccncc2)C3=O)C1 [Compound I-13, (R)-1-(1,3-Dioxo-2-pyridin-4-ylmethyl-2,3-dihydro-1H-isoindol-4-yl)-piperidine-3-carboxylic acid 2-fluoro-benzylamide] | 110 | 196 to 197
4 | O=C(NCC1CCCCC1)[C@@H]1CCCN(c2cccc3c2C(=O)N(Cc2ccncc2)C3=O)C1 [Compound I-15, (R)-1-(1,3-Dioxo-2-pyridin-4-ylmethyl-2,3-dihydro-1H-isoindol-4-yl)-piperidine-3-carboxylic acid cyclohexylmethyl-amide] | 708 | 172 to 173
5 | COCC(C)N1Cc2c(NC(=O)Cc3ccc(F)c(C(F)(F)F)c3)cccc2C1=O (centres unmarked) [Compound I-19, 2-(4-Fluoro-3-trifluoromethyl-phenyl)-N-[2-(2-methoxy-1-methyl-ethyl)-1-oxo-2,3-dihydro-1H-isoindol-4-yl]-acetamide] | 331 | 151 to 152
6 | COc1ccccc1CNC(=O)[C@@H]1CCCN(c2cccc3c2C(=O)N(Cc2cncs2)C3=O)C1 [Compound I-6, (R)-1-(1,3-Dioxo-2-thiazol-5-ylmethyl-2,3-dihydro-1H-isoindol-4-yl)-piperidine-3-carboxylic acid 2-methoxy-benzylamide] | 417 | 
7 | O=C(NCc1ccccc1O)[C@@H]1CCCN(c2cccc3c2C(=O)N(Cc2ccncc2)C3=O)C1 [Compound I-11, (R)-1-(1,3-Dioxo-2-pyridin-4-ylmethyl-2,3-dihydro-1H-isoindol-4-yl)-piperidine-3-carboxylic acid 2-hydroxy-benzylamide] | 100 | 181 to 182
8 | COc1ccccc1CNC(=O)[C@@H]1CCCN(c2cccc3c2C(=O)N(Cc2ccncc2)C3=O)C1 [Compound I-1b, (R)-1-(1,3-Dioxo-2-pyridin-4-ylmethyl-2,3-dihydro-1H-isoindol-4-yl)-piperidine-3-carboxylic acid 2-methoxy-benzylamide] | 55 | 
9 | COc1ccccc1CNC(=O)[C@@H]1CCCN(c2cccc3c2C(=O)N(CC2CCOCC2)C3=O)C1 [Compound I-5, (R)-1-[1,3-Dioxo-2-(tetrahydro-pyran-4-ylmethyl)-2,3-dihydro-1H-isoindol-4-yl]-piperidine-3-carboxylic acid 2-methoxy-benzylamide] | 355 | 
10 | C[C@H](CO)N1Cc2c(ccc(Cl)c2NC(=O)Cc2ccc(F)c(C(F)(F)F)c2)C1=O [Compound I-17, N-[5-Chloro-2-((R)-2-hydroxy-1-methyl-ethyl)-1-oxo-2,3-dihydro-1H-isoindol-4-yl]-2-(4-fluoro-3-trifluoromethyl-phenyl)-acetamide] | 174 | 
11 | C[C@H](CO)N1Cc2c(ccc(Cl)c2NC(=O)CC23CC4CC(CC(C4)C2)C3)C1=O [Compound I-18a, 2-Adamantan-1-yl-N-[5-chloro-2-((R)-2-hydroxy-1-methyl-ethyl)-1-oxo-2,3-dihydro-1H-isoindol-4-yl]-acetamide] | 39.8 | 
12 | COc1cccc(CNC(=O)[C@@H]2CCCN(c3cccc4c3C(=O)N(Cc3ccncc3)C4=O)C2)c1OC [Compound I-10, (R)-1-(1,3-Dioxo-2-pyridin-4-ylmethyl-2,3-dihydro-1H-isoindol-4-yl)-piperidine-3-carboxylic acid 2,3-dimethoxy-benzylamide] | 182 | 199 to 200
13 | C[C@H](CO)N1Cc2c(NC(=O)CC34CC5CC(CC(C5)C3)C4)c(Cl)cc(Cl)c2C1=O [Compound I-18b, 2-Adamantan-1-yl-N-[5,7-dichloro-2-((R)-2-hydroxy-1-methyl-ethyl)-1-oxo-2,3-dihydro-1H-isoindol-4-yl]-acetamide] | 537 | 
14 | COCCN1Cc2c(ccc(Cl)c2NC(=O)Cc2ccc(F)c(C(F)(F)F)c2)C1=O [Compound I-20, N-[5-Chloro-2-(2-methoxy-ethyl)-1-oxo-2,3-dihydro-1H-isoindol-4-yl]-2-(4-fluoro-3-trifluoromethyl-phenyl)-acetamide] | 891 | 
15 | COC[C@@H](C)N1Cc2c(ccc(Cl)c2NC(=O)Cc2ccc(F)c(C(F)(F)F)c2)C1=O [Compound I-21, N-[5-Chloro-2-((R)-2-methoxy-1-methyl-ethyl)-1-oxo-2,3-dihydro-1H-isoindol-4-yl]-2-(4-fluoro-3-trifluoromethyl-phenyl)-acetamide] | 389 | 131 to 132
16 | COc1ccccc1CNC(=O)C1CCCN(c2cccc3c2C(=O)N(Cc2ccncc2)C3=O)C1 (centres unmarked) [Compound I-1a, 1-(1,3-Dioxo-2-pyridin-4-ylmethyl-2,3-dihydro-1H-isoindol-4-yl)-piperidine-3-carboxylic acid 2-methoxy-benzylamide] | 155 | 
17 | CSc1ccccc1CNC(=O)[C@@H]1CCCN(c2cccc3c2C(=O)N(Cc2ccncc2)C3=O)C1 [Compound I-12, (R)-1-(1,3-Dioxo-2-pyridin-4-ylmethyl-2,3-dihydro-1H-isoindol-4-yl)-piperidine-3-carboxylic acid 2-methylsulfanyl-benzylamide] | 30.9 | 
18 | CS(=O)(=O)c1ccccc1CNC(=O)[C@@H]1CCCN(c2cccc3c2C(=O)N(Cc2ccncc2)C3=O)C1 [Compound I-16, (R)-1-(1,3-Dioxo-2-pyridin-4-ylmethyl-2,3-dihydro-1H-isoindol-4-yl)-piperidine-3-carboxylic acid 2-methanesulfonyl-benzylamide] | 204 | 101 to 102
19 | CCOc1ccccc1CNC(=O)[C@@H]1CCCN(c2cccc3c2C(=O)N(Cc2ccncc2)C3=O)C1 [Compound I-9, (R)-1-(1,3-Dioxo-2-pyridin-4-ylmethyl-2,3-dihydro-1H-isoindol-4-yl)-piperidine-3-carboxylic acid 2-ethoxy-benzylamide] | 955 | 194 to 195
20 | O=C(NCC12CC3CC(CC(C3)C1)C2)[C@@H]1CCCN(c2cccc3c2C(=O)N(Cc2ccncc2)C3=O)C1 [Compound I-3, (R)-1-(1,3-Dioxo-2-pyridin-4-ylmethyl-2,3-dihydro-1H-isoindol-4-yl)-piperidine-3-carboxylic acid (adamantan-1-ylmethyl)-amide] | 107 | 
21 | O=C(NCc1ccccc1OC(F)(F)F)[C@@H]1CCCN(c2cccc3c2C(=O)N(Cc2ccncc2)C3=O)C1 [Compound I-7, (R)-1-(1,3-Dioxo-2-pyridin-4-ylmethyl-2,3-dihydro-1H-isoindol-4-yl)-piperidine-3-carboxylic acid 2-trifluoromethoxy-benzylamide] | 851 | 197 to 198
22 | COc1ccccc1CNC(=O)[C@H]1CCCN(c2cccc3c2C(=O)N(Cc2ccncc2)C3=O)C1 [Compound I-2, (S)-1-(1,3-Dioxo-2-pyridin-4-ylmethyl-2,3-dihydro-1H-isoindol-4-yl)-piperidine-3-carboxylic acid 2-methoxy-benzylamide] | 741 | 
